Reference: US8207204B2, “Triazole derivatives as SCD inhibitors” (GlaxoSmithKline LLC, priority 2007, dated 2012)

| SMILES | melting point [°C] |
| --- | --- |
| COCCNC(=O)c1sc(NC(=O)c2nnn(Cc3ccc(Cl)c(Cl)c3)c2C)nc1C [Example 26, 1-[(3,4-Dichlorophenyl)methyl]-5-methyl-N-[4-methyl-5-({[2-(methyloxy)ethyl]amino}carbonyl)-1,3-thiazol-2-yl]-1H-1,2,3-triazole-4-carboxamide] | 129 |
| Cc1nc(NC(=O)c2nnn(Cc3ccc(Cl)c(Cl)c3)c2C)sc1C(=O)NCCO [Example 27, 1-[(3,4-Dichlorophenyl)methyl]-N-(5-{[(2-hydroxyethyl)-amino]carbonyl}-4-methyl-1,3-thiazol-2-yl)-5-methyl-1H-1,2,3-triazole-4-carboxamide] | 166 |
| CNC(=O)c1cnc(NC(=O)c2nnn(Cc3ccc(Cl)c(Cl)c3)c2C)s1 [Example 29, 1-[(3,4-Dichlorophenyl)methyl]-5-methyl-N-{5-[(methylamino)carbonyl]-1,3-thiazol-2-yl}-1H-1,2,3-triazole-4-carboxamide] | 335.6 |
| Cc1c(C(=O)Nc2ncc(C(=O)N(C)C)s2)nnn1Cc1ccc(Cl)c(Cl)c1 [Example 30, 1-[(3,4-Dichlorophenyl)methyl]-N-{5-[(dimethylamino)carbonyl]-1,3-thiazol-2-yl}-5-methyl-1H-1,2,3-triazole-4-carboxamide] | 304.9 |
| Cc1c(C(=O)Nc2ncc(C(=O)NCCO)s2)nnn1Cc1ccc(Cl)c(Cl)c1 [Example 31, 1-[(3,4-Dichlorophenyl)methyl]-N-(5-{[(2-hydroxyethyl)-amino]carbonyl}-1,3-thiazol-2-yl)-5-methyl-1H-1,2,3-triazole-4-carboxamide] | 260.4 |
| CNC(=O)c1ccnc(NC(=O)c2nnn(Cc3ccc(Cl)c(Cl)c3)c2C)c1 [Example 32, 2-[({1-[(3,4-Dichlorophenyl)methyl]-5-methyl-1H-1,2,3-triazol-4-yl}carbonyl)amino]-N-methyl-4-pyridine-carboxamide] | 234.1 |
| CCNC(=O)c1sc(NC(=O)c2cn(Cc3ccc(Cl)c(Cl)c3)nn2)nc1C [Example 33, 1-[(3,4-Dichlorophenyl)methyl]-N-{5-[(ethylamino)carbonyl]-4-methyl-1,3-thiazo1-2-yl}-1H-1,2,3-triazole-4-carboxamide] | 210.6 |
| CNC(=O)c1sc(NC(=O)c2cn(Cc3ccc(Cl)c(Cl)c3)nn2)nc1C [Example 34, 1-[(3,4-Dichlorophenyl)methyl]-N-{4-methyl-5-[(methylamino)carbonyl]-1,3-thiazol-2-yl}-1H-1,2,3-triazole-4-carboxamide] | 210.4 |
| O=C(Nc1ncc(C(=O)NCCO)s1)c1cn(Cc2ccc(Cl)c(Cl)c2)nn1 [Example 35, 1-[(3,4-Dichlorophenyl)methyl]-N-(5-{[(2-hydroxyethyl)amino]carbonyl}-1,3-thiazol-2-yl)-1H-1,2,3-triazole-4-carboxamide] | 274.8 |
| NC(=O)c1cnc(NC(=O)c2cn(Cc3ccc(Cl)c(Cl)c3)nn2)s1 [Example 36, N-[5-(Aminocarbonyl)-1,3-thiazol-2-yl]-1-[(3,4-dichlorophenyl)methyl]-1H-1,2,3-triazole-4-carboxamide] | 280.9 |
| Cc1nc(NC(=O)c2cn(Cc3ccc(Cl)c(Cl)c3)nn2)sc1C(N)=O [Example 37, N-[5-(Aminocarbonyl)-4-methyl-1,3-thiazol-2-yl]-1-[(3,4-dichlorophenyl)methyl]-1H-1,2,3-triazole-4-carboxamide] | 283 |
| Cc1c(C(=O)Nc2nncs2)nnn1Cc1ccc(Cl)c(Cl)c1 [Example 38, 1-[(3,4-Dichlorophenyl)methyl]-5-methyl-N-1,3,4-thiadiazol-2-yl-1H-1,2,3-triazole-4-carboxamide] | 215.6 |
| Cc1c(C(=O)Nc2ncc(CO)s2)nnn1Cc1ccc(Cl)c(Cl)c1 [Example 39, 1-[(3,4-Dichlorophenyl)methyl]-N-[5-(hydroxymethyl)-1,3-thiazol-2-yl]-5-methyl-1H-1,2,3-triazole-4-carboxamide] | 170.5 |
| COCc1c(C(=O)Nc2ncc(CO)s2)nnn1Cc1ccc(Cl)c(Cl)c1 [Example 40, 1-[(3,4-Dichlorophenyl)methyl]-N-[5-(hydroxymethyl)-1,3-thiazol-2-yl]-5-[(methyloxy)methyl]-1H-1,2,3-triazole-4-carboxamide] | 205 |
| Cc1nc(NC(=O)c2nnn(Cc3ccc(Cl)c(Cl)c3)c2C)sc1CO [Example 41, 1-[(3,4-Dichlorophenyl)methyl]-N-[5-(hydroxymethyl)-4-methyl-1,3-thiazol-2-yl]-5-methyl-1H-1,2,3-triazole-4-carboxamide] | 161.8 |
| Cc1c(C(=O)Nc2nnc(CO)s2)nnn1Cc1ccc(Cl)c(Cl)c1 [Example 42, 1-[(3,4-Dichlorophenyl)methyl]-N-[5-(hydroxymethyl)-1,3,4-thiadiazol-2-yl]-5-methyl-1H-1,2,3-triazole-4-carboxamide] | 153.6 |
| Cc1c(C(=O)Nc2cc(CO)ccn2)nnn1Cc1ccc(Cl)c(Cl)c1 [Example 44, 1-[(3,4-Dichlorophenyl)methyl]-N-[4-(hydroxymethyl)-2-pyridinyl]-5-methyl-1H-1,2,3-triazole-4-carboxamide] | 191 |
| COc1ccc2nc(C(=O)Nc3nnn(Cc4ccc(Cl)c(Cl)c4)c3C)sc2c1 [Example 45, N-{1-[(3,4-Dichlorophenyl)methyl]-5-methyl-1H-1,2,3-triazol-4-yl}-6-(methyloxy)-1,3-benzothiazole-2-carboxamide] | 176 |
